# Experimental data reported in US20100016357A1, “Use of Beta-Aminoalcohols for the Treatment of Inflammatory Disorders and Pain” (SOSEI R & D LTD., priority 2006, published 2010).
# Columns and labels:
# Beta2 = biological target: T1, Beta2 (Cavia porcellus, UniProt Q8K4Z4); test: Beta2 Agonism Functional Assay (inhibition of carbachol-stimulated tracheal muscle twitch); assay type: cell-based; settings: Guinea-pig trachea ring preparations contracted with carbachol
# T1 construct: from tissue; host or cells: guinea-pig trachea rings
# Description: Guinea-pig trachea ring preparations were suspended in Kreb's solution containing indomethacin. […] Beta2 agonism for each test compound was determined by its dose-dependant inhibition of carbachol-stimulated tracheal muscle twitch.
# [1] = tested on: LPS-induced TNFα and IL1β cytokine production; test: LPS Mouse Assay (serum cytokines by ELISA); assay type: in vivo, Balb C ByJ mice; settings: mice, i.p. or oral, 30 minutes before 1 mg/kg LPS i.p.; serum 2 hours after LPS
# Description: 7 week old Balb C ByJ mice (24-28 g) were administered, either by i.p. (5 ml/kg) or oral (10 ml/kg) administration, with vehicle or test article. 30 minutes later these animals were challenged with an intraperitoneal injection of 1 mg/kg LPS. 2 hours after LPS challenge blood samples were collected under light isoflurane anaesthesia into normal tubes by retro-orbital puncture. Samples were allowed to clot at room temperature and then spun at 6000 g for 3 min at 4° C. Serum was stored at −20° C. until use. Serum TNFα and IL-10 levels were analysed in duplicate by ELISA technique.
# T1 sequence (Q8K4Z4 whole entry): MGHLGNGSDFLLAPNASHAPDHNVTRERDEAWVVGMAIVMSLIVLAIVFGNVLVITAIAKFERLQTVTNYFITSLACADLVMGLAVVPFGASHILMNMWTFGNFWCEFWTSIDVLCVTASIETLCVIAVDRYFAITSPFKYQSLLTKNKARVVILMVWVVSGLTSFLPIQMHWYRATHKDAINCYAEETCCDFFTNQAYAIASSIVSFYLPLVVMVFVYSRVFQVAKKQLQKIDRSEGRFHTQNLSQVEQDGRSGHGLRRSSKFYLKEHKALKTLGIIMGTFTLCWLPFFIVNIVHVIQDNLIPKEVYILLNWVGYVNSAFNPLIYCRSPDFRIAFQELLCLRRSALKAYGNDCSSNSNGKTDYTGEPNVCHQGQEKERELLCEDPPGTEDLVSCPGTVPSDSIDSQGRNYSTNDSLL
Compound,beta2 agonism (in words) (Beta2),IC50 (Beta2; inhibition of tracheal muscle twitch),effect on LPS-induced IL1β production [1],effect on LPS-induced TNFα production [1]
"Nc1c(Cl)cc(C(O)C2CCCCN2)cc1Cl (single isomer, unassigned) [Compound 7, Erythro-(3,5-dichloro-4-amino-phenyl)-piperidin-2-yl-methanol]","poor, beta2 agonists",> 2000 nM,had effects,had effects
"Nc1c(Cl)cc(C(O)C2CCCCN2)cc1Cl (single isomer, unassigned) [Compound 8, (Erythro)-(3,5-dichloro-4-amino-phenyl)-piperidin-2-yl-methanol]","poor, beta2 agonists",–,had effects,had effects
"Nc1c(Cl)cc(C(O)C2CCCCN2)cc1Cl (single isomer, unassigned) [Compound 10, Threo-(3,5-dichloro-4-amino-phenyl)-piperidin-2-yl-methanol]","poor, beta2 agonists",–,had effects,had effects
"Nc1c(Cl)cc(C(O)C2CCCCN2)cc1Cl (single isomer, unassigned) [Compound 11, Threo-(3,5-Dichloro-4-amino-phenyl)-piperidin-2-yl-methanol]","poor, beta2 agonists",–,had effects,had effects
